Data from paper PMC3188285 (Journal of Medicinal Chemistry, 2011).

Experiments:
HeLa cells = experiment: Cytotoxicity assay; type: cell-based, human; conditions: 10, 1, 0.1 and 0.01 μM; 24 or 48 h; triplicate
CREBBP = type: binding, human; conditions: from ΔTm^obs, compound 100 μM

SMILES	cytotoxicity in HeLa cells (MTT) (HeLa cells)	selectivity for CREBBP over the BET bromodomains (CREBBP)
CCOc1cc(-c2c(C)noc2C)cc(C(C)O)c1 (racemic) [Compound 4d, (RS)-1-(3-(3,5-Dimethylisoxazol-4-yl)-5-ethoxyphenyl)ethanol]	did not show any cytotoxicity	
CCOc1cc(C(=O)O)cc(-c2c(C)noc2C)c1 [Compound 4b, 3-(3,5-Dimethylisoxazol-4-yl)-5-ethoxybenzoic acid]	did not show any cytotoxicity	modest
Cc1noc(C)c1-c1ccc2c(c1)CN(C)C(=O)N2 [Compound 1, 6-(3,5-dimethylisoxazol-4-yl)-3-methyl-3,4-dihydroquinazolin-2(1H)-one]	significant cytotoxicity	
